According to US8765726B2, “Use of pyridone derivatives in the prevention or treatment of tissue or organ toxicity induced by cytotoxic agents and radiation” (Shanghai Genomics, Inc., priority 2006, dated 2014):

Columns and labels:
[1] = tested on: Bleomycin-induced lung fibrosis; assay: Bleomycin-induced lung fibrosis in mice (pathology, lung index); format: in vivo, C57B6 mice; conditions: Bleomycin 5 mg/kg intratracheal day 1, F351 100 mg/kg/day or dexamethasone 3 mg/kg per day gavage for 28 days
Experimental: Forty eight (48) C57B6 mice (with body weight 16-18 g), half male and half female, were used in the study. Animals were divided into four groups with 12 animals per group. All the animals (except for those in control group) were injected with 5 mg/kg Bleomycin in the volume of 50 ul by intratracheal instillation on day 1 of the study. Animals in control group were injected by PBS instead. […] Pathology examination was performed at day 28.

[2] = tested on: Adriamycin-induced renal toxicity; assay: Adriamycin-induced renal toxicity in rats (urine proteins, renal pathology); format: in vivo, Wistar rats; conditions: Adriamycin 7.5 mg/kg tail vein day 1, F351 250 mg/kg per day gavage for 12 weeks
Experimental: (§1) 20 male Wistar rats (with body weight 180-220 g) were randomly divided into three groups with 4 rats in control group, 8 rats in Adriamycin-treated group, and 8 rats in Adriamycin+F351-treated group. All the animals (except for those in control group) were injected with 7.5 mg/kg adriamycin by tail vein injection on day 1 of the study. Animals in Adriamycin+F351-treated group were administrated by gauvage with 250 mg/kg F351 per day for 12 weeks starting on day 1 of the study. Animals in the control group were injected with PBS, instead. The study lasted for 12 weeks.
Rat urine was collected 24 hours before the end of the study and amount of urine proteins was determined. Renal tissues were also collected for pathology examination.
as §1, with “injection at” for “injection on”, “study. Animals in control group were injected with PBS instead.” for “study.”, “day 1.” for “day 1 of the study. Animals in the control group were injected with PBS, instead. The study lasted for 12 weeks.”

[3] = tested on: Cyclosporine A-induced nephrotoxicity; assay: Cyclosporine A-induced nephrotoxicity in rats (mean arterial pressure, kidney fibrosis score); format: in vivo, Wistar rats; conditions: CsA 15 mg/kg subcutaneous + F351 100 mg/Kg/day, once a day for 28 days, low salt diet
Experimental: 24 male Wistar rats (with body weight 180-220 g) were given low salt diet for 7 days before the study and randomly divided into three groups with 8 rats per group. The groups were named as control group, cyclosporine A (CsA)-treated group, and CsA+[…]-treated group. [table] The animals were treated once a day for 28 days as indicated in the above table. Once every 7 days, the animals were weighed and the dose of CsA and […] were adjusted in terms of body weight. Low salt diet was given to the animals during the whole study period. Mean arterial pressure was determined in alert state of the animals at the end of the study. Renal tissues were also collected for pathology examination.

[4] = tested on: radiation-induced lung injuries; assay: Example 1 repeated with F351 on radiation-induced lung injuries; format: in vivo; conditions: Prophylactic and therapeutic administration, irradiated mice, twenty per group; 'should show'
Source text: The experiments in Example 1 are repeated, except that 5-methylpyridin-1(4-hydroxyphenyl)-2-(1H)-one (F351) rather than Pirfenidone is used, with twenty mice in each group.

[5] = tested on: bleomycin-induced lung fibrosis; assay: Bleomycin-induced lung fibrosis in rat: side effects of dexamethasone compared with pirfenidone
Source text: Dexamethasone treatment was used as positive control in one study was designed to investigate the effects of pirfenidone on bleomycin-induced lung fibrosis in rat.

[6] = Blood level of Pirfenidone capsule in healthy subjects on repeated dosing; format: in vivo, human; conditions: Twelve healthy subjects, capsule 400 mg once a day or three times a day for 5 days
Experimental: Twelve healthy subjects were administered with Pirfenidone capsule at the dose of 400 mg, once a day or three times a day. The medication continued for 5 days. The blood level of the medicine was measured every day.

[7] = tested on: radiation-induced lung injuries; assay: Tolerance to the therapeutic irradiation dosage, prophylactic Pirfenidone in irradiated mice; format: in vivo; conditions: Prophylactic administration, 200 mg/kg gavage once a day started 2 days before irradiation
Experimental: (a) Method: the Same as Described in Example 1. Prophylaxis group (60 mice): The medication was started 2 days before the irradiation. The mice were divided into two groups. The animals were administered by gauvage with Pirfenidone (200 mg/kg, dissolved in 0.5% CMC-Na and administrated at the volume of 0.1 ml/10 g) once a day for 3 months. Each group consisted of 60 mice. The mice of each group were observed once a day after irradiation to examine the dyspnea and mortality. The lung weighing, cytometry and cell sorting of the bronchial alveolar lavage liquid, collagen content measurement (hydroxyproline), measurement of cytokines (ACE, TGF-β, TGF-α etc) in the plasma, and pathomorphological observation were conducted periodically after the medicament treatment.

[8] = tested on: radiation-induced lung injuries; assay: Radiation-induced lung injuries in mice (bronchial alveolar lavage cell count, whole-lung hydroxyproline); format: in vivo, BALB/C mice; design: unit not given here; conditions: 1200 cGy chest
Source text: Irradiation source: Varian 600C linear accelerator, 6MV X ray
Irradiation method: The mice, six per row, were each detained in an organic-glass cage. The cage was lid with a 1.5 cm thick organic glass plate to compensate the buildup effect. The source-to-skin distance was 100 cm, the irradiation field was 2.5×18 cm. The animal's head and abdomen were sheltered by the lead baffle of the collimator, and thus only the chest was exposed to the irradiation. The single dose of irradiation is 1200 cGy. A sealed transfer box equipped with an air filtering device should be used to transfer the animals from or back to the animal house.
Animals: 10-week old BALB/C mice
Control Model group (60 mice): The mice were irradiated but not treated with the compound.
(§2) Prophylaxis group (60 mice): The medication at a predetermined dose was started 2 days before the irradiation. The irradiation method and the dosage were the same as in the control group. Pirfenidone was administered by gauvage (200 mg/kg, dissolved in 0.5% CMC-Na and administrated at the volume of 0.1 ml/10 g) once a day for 3 months.
as §2, with “Treatment” for “Prophylaxis”, “medication” for “medication at a predetermined dose”, “at day 0 of” for “2 days before”, “and” for “and the”
Blank control group (60 mice): The mice were not irradiated, and were only administered by gauvage with 0.5% CMC-Na once a day for 3 months.
The mice of each group were observed once a day after irradiation to examine the mortality. The cytometry and cell sorting of the lavage, collagen content measurement (hydroxyproline), pathomorphological observation were conducted periodically after medicament treatment.
Cytometry of the bronchial alveolar lavage liquid: the right lung was perfused with normal saline. 1.5-2.0 ml lavage liquid was collected into an Ependoff tube by gentle suction. The content of the inflammatory cells was counted manually by use of a haemocytometer immediately after collection of the bronchial alveolar lavage liquid.
Measurement of the hydroxyproline content: The measurement was performed with isolated lung tissue by following the instruction in the hydroxyproline kit.
Histopathologic examination: The isolated lung tissue was fixed in formaldehyde solution, pafarrin-imbeded after dehydration, and then subjected to HE staining and Masson trichrome staining. Evaluation criteria: Radiation-induced lung injuries was evaluated according to the standard semi-quantitative scoring of the Ashcroft interstitial pulmonary fibrosis.

[9] = tested on: radiation-induced lung fibrosis; assay: Prevention and/or treatment of radiation-induced lung fibrosis in mice (macrophages, fibrosis evaluation, hydroproline); format: in vivo, BalB/C male mice; conditions: for Cytometry of macrophages / Evaluation on lung fibrosis / Hydroproline level: P + R group: 200 mg/kg/day from two days before 1200 cGy chest radiation for 12 weeks
Experimental: BalB/C male mice were randomly divided into three groups, namely, Control group (C group), Radiation group (R group), and Pirfenidone+Radiation (P+R group). All the animals were given single dose radiation on chest at 1200 cGy. Drugs were administrated two days before radiation for 12 weeks at 200 mg/kg/day. Examination includes cytometry of macrophages (performed 4 weeks and 8 weeks after drug administration), determination of hydroproline level (performed 16 weeks and 24 weeks after drug administration), and pathology examination of lung tissues by HE staining and Masson staining and evaluation of lung fibrosis by Ashcroft semi-quantitative evaluation standard under a microscope (performed 16 weeks and 24 weeks after drug administration).

[10] = Bleomycin-treated rats plus test drug
[11] = Prophylaxis group: 200 mg/kg gavage once a day started 2 days before irradiation, Month 2
[12] = Prophylaxis group: 200 mg/kg gavage once a day started 2 days before irradiation, Month 3
[13] = Prophylaxis group: 200 mg/kg gavage once a day started 2 days before irradiation, Month 4
[14] = Prophylaxis group: 200 mg/kg gavage once a day started 2 days before irradiation, Month 5
[15] = Prophylaxis group: 200 mg/kg gavage once a day started 2 days before irradiation, Month 6
[16] = Treatment group: 200 mg/kg gavage once a day from day 0 of irradiation, Month 2
[17] = Treatment group: 200 mg/kg gavage once a day from day 0 of irradiation, Month 3
[18] = Treatment group: 200 mg/kg gavage once a day from day 0 of irradiation, Month 4
[19] = Treatment group: 200 mg/kg gavage once a day from day 0 of irradiation, Month 5
[20] = Treatment group: 200 mg/kg gavage once a day from day 0 of irradiation, Month 6

## Cc1ccc(=O)n(-c2ccc(O)cc2)c1 [F351, 5-methyl-1-(4-hydroxylphenyl)-2-(1H)-pyridone]
[1]
  Lung Index (±S): 1511.71 ± 945.55
[1]; day 28
  Pathological changes of the lung (pathology examination, HE and Masson staining): significant improvement
[2]
  Degree of kidney fibrosis by pathology examination: reduced the degree of kidney fibrosis
[2]; x ± s
  Amount of Urine Proteins: 54.32 ± 10.88 mg/24 hrs
[3]
  Score on Kidney Fibrosis: 0.62 ± 0.15
[3]; x ± s
  Mean Arterial Pressure: 16.02 ± 0.27 kPa
[4]
  Amount of inflammatory cells in the bronchial alveolar lavage liquid: reduce the amount of inflammatory cells

## C[C@@H]1C[C@H]2[C@@H]3CCC4=CC(=O)C=C[C@]4(C)[C@@]3(F)[C@@H](O)C[C@]2(C)[C@@]1(O)C(=O)CO [dexamethasone]
[1]
  Lung Index (±S): 1083.90 ± 289.66
[5]; [10]
  Mortality rate: 64.3%
  Number of dead animal: 9/14
[5]; rat, in vivo
  Body weight: Loss of body weight

## Cc1ccc(=O)n(-c2ccccc2)c1 [Pirfenidone]
[6]
  Day on which blood stasis was achieved (blood level of the medicine): 3 days
[7]
  Cell count in the bronchial alveolar lavage liquid versus control group: lower than that of the control group
[8]; Prophylaxis group: 200 mg/kg gavage once a day started 2 days before irradiation, Month 1
  Measurement of hydroxyproline in the whole lung: 43.85
[8]; [11]
  Cell count of bronchial alveolar lavage liquid: 2.27
  Measurement of hydroxyproline in the whole lung: 43.81
[8]; [12]
  Cell count of bronchial alveolar lavage liquid: 2.03
  Measurement of hydroxyproline in the whole lung: 50.46
[8]; [13]
  Cell count of bronchial alveolar lavage liquid: 4.5
  Measurement of hydroxyproline in the whole lung: 56.98
[8]; [14]
  Cell count of bronchial alveolar lavage liquid: 27.7
  Measurement of hydroxyproline in the whole lung: 58.1
[8]; [15]
  Cell count of bronchial alveolar lavage liquid: 15
  Measurement of hydroxyproline in the whole lung: 58.15
[8]; Treatment group: 200 mg/kg gavage once a day from day 0 of irradiation, Month 1
  Measurement of hydroxyproline in the whole lung: 36.11
[8]; [16]
  Cell count of bronchial alveolar lavage liquid: 5.78
  Measurement of hydroxyproline in the whole lung: 46.36
[8]; [17]
  Cell count of bronchial alveolar lavage liquid: 1.04
  Measurement of hydroxyproline in the whole lung: 52.13
[8]; [18]
  Cell count of bronchial alveolar lavage liquid: 8.04
  Measurement of hydroxyproline in the whole lung: 60.38
[8]; [19]
  Cell count of bronchial alveolar lavage liquid: 45.55
  Measurement of hydroxyproline in the whole lung: 67.92
[8]; [20]
  Cell count of bronchial alveolar lavage liquid: 39.29
  Measurement of hydroxyproline in the whole lung: 68.24
[9]; 200 mg/kg/day for 12 weeks
  Toxic effect on BalB/C mice: little toxic effect
[9]; 4 weeks
  Cytometry of macrophages: 6.67 ± 2.04 1 × 10^4/ml
[9]; 8 weeks
  Cytometry of macrophages: 2.27 ± 1.41 1 × 10^4/ml
[9]; 16 weeks
  Evaluation on lung fibrosis: 29.15 ± 18.74
  Hydroproline level: 67.65 ± 11.99 µg/mg
[9]; 24 weeks
  Evaluation on lung fibrosis: 19.46 ± 6.67
  Hydroproline level: 79.15 ± 10.90 µg/mg
